Counter-ions that a name gives are not always drawn. Like-named read-outs stand apart in the source and are kept apart here.
Columns and labels:
[1] = system: rat hepatic microsomal PTPases; test: Inhibition of tri-phosphorylated insulin receptor dodecaphosphopeptide dephosphorylation by rat hepatic PTPases (malachite green); type: biochemical; details: rat liver microsomal fraction; for % Change from Control: PTPase activity, compound at 50 µM; for IC50: % Change from Control
Human recombinant PTP1B = molecular target: T1, Human recombinant PTP1B (Homo sapiens, UniProt P18031); test: Inhibition of tri-phosphorylated insulin receptor dodecaphosphopeptide dephosphorylation by hPTP1B (malachite green); type: biochemical; details: for IC50: recombinant PTP1B, dodecaphosphopeptide substrate; for change of PTP1B activity (percent of phosphatase control) / inhibition at 2.5 µM: compound at 2.5 uM; for inhibition at 2.5 µM: read-out: change of PTP1B activity (percent of phosphatase control)
T1 construct: made in house
T1 sequence (P18031 1-435): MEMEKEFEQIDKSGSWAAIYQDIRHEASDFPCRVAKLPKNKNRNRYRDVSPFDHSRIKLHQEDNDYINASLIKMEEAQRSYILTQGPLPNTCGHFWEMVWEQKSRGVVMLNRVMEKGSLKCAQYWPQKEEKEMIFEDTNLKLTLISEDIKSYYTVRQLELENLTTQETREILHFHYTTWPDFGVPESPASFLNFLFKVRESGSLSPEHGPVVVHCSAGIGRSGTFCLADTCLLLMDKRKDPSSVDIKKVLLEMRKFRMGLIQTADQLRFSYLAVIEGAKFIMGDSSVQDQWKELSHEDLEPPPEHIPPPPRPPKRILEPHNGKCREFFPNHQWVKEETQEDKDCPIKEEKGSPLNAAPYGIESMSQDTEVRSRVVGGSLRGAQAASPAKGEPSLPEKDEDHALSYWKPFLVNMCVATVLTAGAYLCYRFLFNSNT

diabetic (ob/ob) mice = test: Blood glucose lowering in diabetic (ob/ob) mice; type: in vivo; details: Mus musculus, po, cells marked a = no significant activity (p<0.05) at this dose
[2] = read-out: % Change Insulin from Vehicle
[3] = plasma glucose, read-out: % Change Glucose from Vehicle

Compound	% Change from Control [1] [%]	IC50 (Human recombinant PTP1B) [nM]	IC50 [1] [nM]	other results
CCCCc1oc2ccccc2c1-c1ccc(-c2ccc(OCC(=O)O)cc2)cc1 [Example 9, [4'-(2-Butyl-benzofuran-3-yl)-biphenyl-4-yloxy]-acetic acid]	-75	2190	–	–
O=C(O)[C@@H](Cc1ccccc1)Oc1ccc(-c2ccc(-c3ccsc3Cc3ccccc3)cc2)cc1 [Example 29, (2R)-2-[4'-(2-Benzyl-thiophene-3-yl)-biphenyl-4-yloxy]-3-phenyl-propionic acid]	-19	970	–	–
O=C(O)[C@@H](Cc1ccccc1)Oc1ccc(-c2ccc(-c3c(Cc4ccccc4)sc4ccccc34)cc2)cc1Br [Example 36, (2R)-2-[4'-(2-Benzyl-benzo[b]thiophene-3-yl)-3-bromo-biphenyl-4-yloxy]-3-phenyl-propionic acid]	–	58	17900	–
O=C(O)[C@@H](Cc1ccccc1)Oc1ccc(-c2ccc(-c3c(Cc4ccccc4)oc4ccccc34)cc2)cc1 [Example 15, (2R)-2-[4'-(2-Benzyl-benzofuran-3-yl)-biphenyl-4-yloxy]-3-phenyl-propionic acid]	-59	348	–	change in vivo at 100 mg/kg (diabetic (ob/ob) mice; [2]): 4.1%; change in vivo at 100 mg/kg (diabetic (ob/ob) mice; [3]): -35%
O=C(O)C(Cc1ccccc1)Oc1ccc(-c2ccc(-c3coc4ccccc34)cc2)cc1 (stereo not shown) [Example 5, 2-(4'-Benzofuran-3-yl-biphenyl-4-yloxy)-3-phenyl-propionic acid]	-70	–	–	change of PTP1B activity (percent of phosphatase control) (Human recombinant PTP1B): -47 (2.5 uM)
CCCCc1sc2ccccc2c1-c1ccc(-c2ccc(OC(C(=O)O)c3ccccc3)cc2)cc1 (stereo not shown) [Example 21, [4'-(2-Butyl-benzo[b]thiophene-3-yl)-biphenyl-4-yloxy]-phenyl-acetic acid]	–	118	35500	–
CCCCc1oc2ccccc2c1-c1ccc(-c2ccc(O)cc2)cc1 [Example 8, 4'-(2-Butyl-benzofuran-3-yl)-biphenyl-4-ol]	-28	740	–	–
COc1ccc(-c2cc(-c3ccc(-c4c(Cc5ccccc5)sc5ccccc45)cc3)ccc2O[C@H](Cc2ccccc2)C(=O)O)cc1 [Example 38, (2R)-2-[4-(2-Benzyl-benzo[b]thiophene-3-yl)-4"-methoxy-[1,1';3',1"]terphenyl-4'-yloxy]-3-phenvl-propionic acid]	–	53	19300	–
O=C(O)[C@@H](Cc1ccccc1)Oc1ccc(-c2ccc(-c3c(C(O)c4ccccc4)oc4ccccc34)cc2)cc1 (stereo partly drawn) [Example 22, (2R)-2-{4'-[2-(Hydroxy-phenyl-methyl)-benzofuran-3-yl)-biphenyl-4-yloxy]-3-phenyl-propionic acid]	-55	118	–	–
O=C(O)[C@@H](Cc1ccccc1)Oc1ccc(-c2ccc(-c3c(Cc4ccc(O)c(O)c4)sc4ccccc34)cc2)cc1 [Example 28, (2R)-2-{4'-[2-(3,4-Dihydroxy-benzyl)-benzo[b]thiophene-3-yl)-biphenyl-4-yloxy]-3-phenyl-propionic acid]	–	122	20600	change in vivo at 25 mg/kg (diabetic (ob/ob) mice; [3]): -20%
CC(Cc1ccccc1)(Oc1ccc(-c2ccc(-c3c(Cc4ccccc4)oc4ccccc34)cc2)cc1)C(=O)O (stereo not shown) [Example 24, 2-[4'-(2-Benzyl-benzofuran-3-yl)-biphenyl-4-yloxy]-2-methyl-3-phenyl-propionic acid]	–	293	–	change in vivo at 25 mg/kg (diabetic (ob/ob) mice; [3]): -30.5%
O=C(O)[C@@H](Cc1ccccc1)Oc1ccc(-c2ccc(-c3c(Cc4ccc(F)cc4)sc4ccccc34)cc2)cc1 [Example 19]	–	123	21400	change in vivo at 100 mg/kg (diabetic (ob/ob) mice; [2]): 1.1%; change in vivo at 100 mg/kg (diabetic (ob/ob) mice; [3]): -27.7%
COc1ccc(-c2cc(-c3ccc(-c4c(Cc5ccccc5)oc5ccccc45)cc3)ccc2O[C@@H](Cc2ccccc2)C(=O)O)cc1 [Example 55, (2S)-2-[4-(2-benzyl-benzofuran-3-yl)-4"-methoxy-[1,1';3',1'']terphenyl-4'-yloxy]-3-phenyl-propionic acid]	–	43	–	change in vivo at 25 mg/kg (diabetic (ob/ob) mice; [2]): 35.4%; change in vivo at 25 mg/kg (diabetic (ob/ob) mice; [3]): -13.6%
O=C(O)C(Cc1ccccc1)Oc1ccc(-c2ccc(-c3c(Br)oc4ccccc34)cc2)cc1 (stereo not shown) [Example 7, 2-[4'-(2-Bromo-benzofuran-3-yl)-biphenyl-4-yloxy]-3-phenyl-propionic acid]	-73	–	–	inhibition at 2.5 µM (Human recombinant PTP1B): 58%
COc1ccc(Cc2sc3ccccc3c2-c2ccc(-c3ccc(O[C@H](Cc4ccccc4)C(=O)O)cc3)cc2)cc1OC [Example 25, (2R)-2-{4'-[2-(3,4-Dimethoxy-benzyl)-benzo[b]thiophen-3-yl]-biphenyl-4-yloxy}-3-phenyl-propionic acid]	–	213	17900	–
O=C(c1ccccc1)c1oc2ccccc2c1-c1ccc(-c2ccc(OC(Cc3ccccc3)C(=O)O)cc2)cc1 (stereo not shown) [Example 14]	-55	–	–	change in vivo at 100 mg/kg (diabetic (ob/ob) mice; [3]): -39%
O=C(O)CCCOc1ccc(-c2ccc(-c3c(Cc4ccccc4)sc4ccccc34)cc2)cc1Br [Example 42]	–	178	–	change in vivo at 25 mg/kg (diabetic (ob/ob) mice; [2]): 9.9%; change in vivo at 25 mg/kg (diabetic (ob/ob) mice; [3]): -10.6%
O=C(O)COc1ccc(-c2ccc(-c3coc4ccccc34)cc2)cc1 [Example 4, (4'-Benzofuran-3-yl-biphenyl-4-yloxy)-acetic acid]	-11	–	–	change of PTP1B activity (percent of phosphatase control) (Human recombinant PTP1B): -51 (2.5 uM)
O=C(O)[C@@H](Cc1ccccc1)Oc1c(Br)cc(-c2ccc(-c3c(Cc4ccccc4)sc4ccccc34)cc2)cc1Br [Example 37, (2R)-2-[4'-(2-Benzyl-benzo[b]thiophene-3-yl)-3,5-dibromo-biphenyl-4-yloxy]-3-phenyl-propionic acid]	–	25	36800	–
COc1ccc(Cc2sc3ccccc3c2-c2ccc(-c3ccc(O[C@H](Cc4ccccc4)C(=O)O)cc3)cc2)cc1 [Example 20]	–	–	41600	–
O=C(O)C(Cc1ccccc1)Oc1ccc(-c2ccc(-c3c(Cc4ccccc4)sc4ccccc34)cc2)cc1 (stereo not shown) [Example 13, 2-[4'-(2-Benzyl-benzo[b]thiophen-3-yl)-biphenyl-4-yloxy]-3-phenyl-propionic acid]	-50	–	–	change in vivo at 100 mg/kg (diabetic (ob/ob) mice; [2]): 5%; change in vivo at 100 mg/kg (diabetic (ob/ob) mice; [3]): -36.7%
O=C(O)COc1ccc(-c2ccc(-c3c(Br)oc4ccccc34)cc2)cc1 [Example 6, [4'-(2-Bromo-benzofuran-3-yl)-biphenyl-4-yloxy]-acetic acid]	-71	–	–	inhibition at 2.5 µM (Human recombinant PTP1B): 15%
O=C(O)[C@@H](CCN1C(=O)c2ccccc2C1=O)Oc1ccc(-c2ccc(-c3c(Cc4ccccc4)oc4ccccc34)cc2)cc1 [Example 48, (2R)-2-[4'-(2-benzyl-benzofuran-3-yl)-biphenyl-4-yloxy]-4-(1,3-dioxo-1,3-dihydro-isoindol-2-yl)-butyric acid]	–	341	–	change in vivo at 25 mg/kg (diabetic (ob/ob) mice; [2]): -30%; change in vivo at 25 mg/kg (diabetic (ob/ob) mice; [3]): 4.7%
COc1ccc(Cc2sc3ccccc3c2-c2ccc(-c3ccc(O[C@H](Cc4ccccc4)C(=O)O)cc3)cc2)c(OC)c1 [Example 26, (2R)-2-{4'-[2-(2,4-Dimethoxy-benzyl)-benzo[b]thiophen-3-yl]-biphenyl-4-yloxy}-3-phenyl-propionic acid]	–	85	20000	–
O=C(O)[C@H](Cc1ccccc1)Oc1ccc(-c2ccc(-c3c(Cc4ccccc4)oc4ccccc34)cc2)cc1 [Example 16, (2S)-2-[4'-(2-Benzyl-benzofuran-3-yl)-biphenyl-4-yloxy]-3-phenyl-propionic acid tromethamine salt]	-53	397	–	–
CC1(C)Oc2ccc(Cc3sc4ccccc4c3-c3ccc(-c4ccc(O[C@H](Cc5ccccc5)C(=O)O)cc4)cc3)cc2O1 [Example 27, (2R) 2-{4'-[2-(2,2-Dimethyl-benzo[1,3]dioxol-5-ylmethyl)-benzo[b]thiophene-3-yl)-biphenyl-4-yloxy]-3-phenyl-propionic acid]	–	77	24900	–
O=C(O)[C@@H](Cc1ccccc1)Oc1ccc(-c2ccc(-c3c(Cc4ccccn4)sc4ccccc34)cc2)cc1 [Example 33, (2R)-3-phenyl-2-[4'-(2-pyridin-2-ylmethyl-benzo[b]thiophene-3-yl)-biphenyl-4-yloxy]-propionic acid]	–	1550	–	–
COC(=O)[C@H](Cc1ccccc1)Oc1ccc(-c2ccc(-c3c(Cc4ccccc4)oc4ccccc34)cc2)cc1 [Example 23, (2S)-2-[4'-(2-Benzyl-benzofuran-3-yl)-biphenyl-4-yloxy]-3-phenyl-propionic acid methyl ester]	–	–	–	inhibition at 2.5 µM (Human recombinant PTP1B): 36%
O=C(O)[C@H](Oc1ccc(-c2ccc(-c3c(Cc4ccccc4)oc4ccccc34)cc2)cc1)c1ccccc1 [Example 18, (2R)-2-[4'-(2-Benzyl-benzofuran-3-yl)-biphenyl-4-yloxy]-phenyl-acetic acid]	–	401	24200	–

Source: patent publication EP1077967B1, “BIPHENYL OXO-ACETIC ACIDS USEFUL IN THE TREATMENT OF INSULIN RESISTANCE AND HYPERGLYCEMIA” (Wyeth, priority 1998, dated 1999)
